Measurements: PubChem BioAssay AID1259407 (Chemical Carcinogenesis Research Information System (CCRIS), 2018)
Active and inactive are the calls of the source. No rule for the calls is given here.

Test system: CCRIS mutagenicity, Ames/micronucleus/aberration tests
Assay: CCRIS mutagenicity studies
[1] = Test System: AMES SALMONELLA TYPHIMURIUM, Strain/Indicator: TA98, Metabolic Activation: NONE, Method: PREINCUBATION
[2] = Test System: AMES SALMONELLA TYPHIMURIUM, Strain/Indicator: TA100, Metabolic Activation: NONE, Method: PREINCUBATION

| Structure (SMILES) | mutagenic call [1] | mutagenic call (Test System: AMES SALMONELLA TYPHIMURIUM, Strain/Indicator: TA98, Metabolic Activation: RAT LIVER S-9, PHENOBARBITAL, 5,6-BENZOFLAVONE, Method: PREINCUBATION) | mutagenic call [2] | mutagenic call (Test System: AMES SALMONELLA TYPHIMURIUM, Strain/Indicator: TA100, Metabolic Activation: RAT LIVER S-9, PHENOBARBITAL, 5,6-BENZOFLAVONE, Method: PREINCUBATION) | mutagenic call (Test System: AMES SALMONELLA TYPHIMURIUM, Strain/Indicator: TA1535, Metabolic Activation: NONE, Method: PREINCUBATION) | mutagenic call (Test System: AMES SALMONELLA TYPHIMURIUM, Strain/Indicator: TA1535, Metabolic Activation: RAT LIVER S-9, PHENOBARBITAL, 5,6-BENZOFLAVONE, Method: PREINCUBATION) | mutagenic call (Test System: AMES SALMONELLA TYPHIMURIUM, Strain/Indicator: TA1537, Metabolic Activation: NONE, Method: PREINCUBATION) | mutagenic call (Test System: AMES SALMONELLA TYPHIMURIUM, Strain/Indicator: TA1537, Metabolic Activation: RAT LIVER S-9, PHENOBARBITAL, 5,6-BENZOFLAVONE, Method: PREINCUBATION) | mutagenic call (Test System: ESCHERICHIA COLI, Strain/Indicator: WP2 UVR A, Metabolic Activation: NONE, Method: PREINCUBATION) | mutagenic call (Test System: ESCHERICHIA COLI, Strain/Indicator: WP2 UVR A, Metabolic Activation: RAT LIVER S-9, PHENOBARBITAL, 5,6-BENZOFLAVONE, Method: PREINCUBATION) | mutagenic call (Test System: UDS RAT HEPATOCYTES, Strain/Indicator: THYMIDINE INCORPORATION, Metabolic Activation: NONE, Method: AUTORADIOGRAPHY) | mutagenic call (Test System: Ames Salmonella typhimurium, Strain/Indicator: TA100, Metabolic Activation: None, Method: Preincubation) | mutagenic call (Test System: Ames Salmonella typhimurium, Strain/Indicator: TA100, Metabolic Activation: Rat, Liver, S-9, Phenobarbital and 5,6-benzoflavone, Method: Preincubation) | mutagenic call (Test System: Ames Salmonella typhimurium, Strain/Indicator: TA102, Metabolic Activation: None, Method: Preincubation) | mutagenic call (Test System: Ames Salmonella typhimurium, Strain/Indicator: TA102, Metabolic Activation: Rat, Liver, S-9, Phenobarbital and 5,6-benzoflavone, Method: Preincubation) | mutagenic call (Test System: AMES SALMONELLA TYPHIMURIUM, Strain/Indicator: TA97, Metabolic Activation: NONE, Method: PREINCUBATION) | mutagenic call (Test System: AMES SALMONELLA TYPHIMURIUM, Strain/Indicator: TA100, Metabolic Activation: NONE, Method: STANDARD PLATE) | mutagenic call (Test System: AMES SALMONELLA TYPHIMURIUM, Strain/Indicator: TA104, Metabolic Activation: NONE, Method: PREINCUBATION) | mutagenic call (Test System: CHINESE HAMSTER V-79, Strain/Indicator: V-79/6-THIOGUANINE, Metabolic Activation: NONE) |
| --- | --- | --- | --- | --- | --- | --- | --- | --- | --- | --- | --- | --- | --- | --- | --- | --- | --- | --- | --- |
| COc1ccc2cc1Oc1ccc(cc1)C[C@H]1c3c(cc4c(c3Oc3cc5c(cc3OC)CCN(C)[C@@H]5C2)OCO4)CCN1C | inactive; negative | active; positive | inactive; negative | active; positive | inactive; negative | active; positive | inactive; negative | active; positive | inactive; negative | inactive; negative | active; positive |  |  |  |  |  |  |  |  |
| [C-]#[O+].[C-]#[O+].[Ni].c1ccc([PH+](c2ccccc2)c2ccccc2)cc1.c1ccc([PH+](c2ccccc2)c2ccccc2)cc1 |  |  |  |  |  |  |  |  |  |  |  | inactive; negative | inactive; negative | inactive; negative | inactive; negative |  |  |  |  |
| O[C@H]1[C@H]2O[C@H]2c2c(ccc3ccccc23)[C@@H]1O | active; positive |  | active; positive |  |  |  |  |  |  |  |  |  |  |  |  | active; positive | active; positive | active; positive | active; positive |
